Measured values published in ChEMBL document CHEMBL1126398, “(5S)-3-aryl-5-(1-piperidinylmethyl)-2-oxazolidinones, a new class of potential neuroleptics with a high affinity for sigma receptors” (Bioorg Med Chem Lett, 1992).

Biological target: D(2) dopamine receptor (Rattus norvegicus, UniProt P61169)
Test: Binding affinity against the Dopamine receptor D2 in rat striatum by using [3H]spiperone radioligand
Type: tissue-based

Sequence of D(2) dopamine receptor (P61169 whole entry): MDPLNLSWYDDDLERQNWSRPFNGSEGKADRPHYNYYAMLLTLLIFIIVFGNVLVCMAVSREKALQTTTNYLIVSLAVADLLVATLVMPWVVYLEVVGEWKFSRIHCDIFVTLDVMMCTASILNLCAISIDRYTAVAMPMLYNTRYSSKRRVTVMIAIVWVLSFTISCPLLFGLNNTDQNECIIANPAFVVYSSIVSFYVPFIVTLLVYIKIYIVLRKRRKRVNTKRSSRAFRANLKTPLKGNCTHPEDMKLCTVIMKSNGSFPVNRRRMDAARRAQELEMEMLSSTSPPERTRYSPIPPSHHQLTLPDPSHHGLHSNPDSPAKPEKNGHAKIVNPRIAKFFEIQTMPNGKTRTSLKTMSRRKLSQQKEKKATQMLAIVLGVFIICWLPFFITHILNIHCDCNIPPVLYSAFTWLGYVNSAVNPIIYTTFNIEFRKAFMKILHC

IC50: 4.9 µM
SMILES: OC(CCCN1CCN(c2ncc(F)cn2)CC1)c1ccc(F)cc1 (stereo unspecified) [BMY-14802]
